*1 amine or outer side, *2 acyl side, *3 side chain or, on linkers, in order; H or OH if unused. Where a SMILES comes first, the peptide text is derived from it. Bridges are numbered along the chain shown (N, C = ends). Roman numbers before positions name the chains, in order. [ ]: non-standard residue; d: D form. The star is where a group is joined. C20 diacid = O=C(O)CCCCCCCCCCCCCCCCCCC(=O)*; C18 diacid = O=C(O)CCCCCCCCCCCCCCCCC(=O)*; γGlu = O=C(O)[C@H](CCC(=O)[*:2])N[*:1]; Desaminohistidyl = O=C(CCc1c[nH]cn1)*; Ac4c = NC1(C(=O)O)CCC1; Aib = CC(C)(N)C(=O)O
How the values were obtained:
[1] = molecular target: T1, human GLP-1 receptor (Homo sapiens, UniProt P43220); assay: Assay (II)(a): GLP-1 receptor binding, [125I]GLP-1 displacement, SPA on BHK membranes; conditions: displacement of [125I]GLP-1, membranes with human GLP-1 receptor; read-out: IC50 GLP-1R
T1 construct: expressed in transfected cells; host or cells: membranes of BHK cells, parent line BHKTS13, clone FCW467-12A
T1 sequence (P43220 24-463): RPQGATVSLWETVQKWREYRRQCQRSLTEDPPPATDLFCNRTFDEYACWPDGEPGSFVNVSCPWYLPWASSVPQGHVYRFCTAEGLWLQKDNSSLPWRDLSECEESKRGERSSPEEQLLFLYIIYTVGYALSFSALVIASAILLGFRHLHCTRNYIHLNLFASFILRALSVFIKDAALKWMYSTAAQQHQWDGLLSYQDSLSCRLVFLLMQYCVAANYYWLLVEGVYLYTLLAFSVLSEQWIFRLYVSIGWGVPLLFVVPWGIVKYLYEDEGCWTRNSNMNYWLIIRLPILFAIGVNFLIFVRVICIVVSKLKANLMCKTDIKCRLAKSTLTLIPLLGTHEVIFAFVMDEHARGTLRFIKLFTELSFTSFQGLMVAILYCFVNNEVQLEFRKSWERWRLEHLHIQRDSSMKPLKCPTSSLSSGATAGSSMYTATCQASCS
Procedure, shortened: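 Membranes from BHK cells expressing human GLP-1 receptor with WGA SPA beads, [125I]GLP-1(7-36)NH2 (480 pM added solution) and compound in HEPES pH 7.4 buffer with EGTA, MgCl2, Tween 20. Incubated 2 h at 30° C; SPA counts fitted by non-linear regression to IC50 in nM.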

[2] = Assay (V): chemical stability assessment by RP-UPLC; format: physicochemical; conditions: 14 days at 37° C. in phosphate buffer (pH 7.3)
Experimental: Assay (V): Chemical Stability Assessment
The purpose of this assay is to assess the chemical stability of the GLP-1 derivatives of the present invention in aqueous solutions.
Chemical stability of GLP-1 derivatives may be investigated by RP-UPLC separation and UV detection. Lyophilized samples are dissolved in a 8 mM Phosphate buffer pH 8.6, followed by adjustment to pH 7.3 using HCl to a final concentration of 333 μM. Samples are incubated for 14 days at 5° C. and 37° C. followed by RP-UPLC analysis. Purity is defined as the area percentage of the main peak in relation to the total area of all integrated peaks in each chromatogram. Purity loss, also referred to herein as chemical degradation, after 14 days at 37° C. is determined as the difference in purity between the samples incubated at 5° C. and 37° C., divided by the purity of the sample after incubation for 14 days at 5° C.
RP-UPLC analysis is performed using a Waters BEH130 2.1 mm×150 mm, 1.7 μm column operated at 50° C. and a flow rate of 0.4 mL/min using a mobile phase system consisting of A: 0.05% TFA in MQ-water, and B: 0.05% TFA in Acetonitrile. UV-detection is performed at 215 nm. The typical gradient profile used for most of the samples is shown below.
For some individual derivatives eluting at substantially different retention times compared with the majority of derivatives, some adjustments to the gradient profile are made to better enable purity assessment comparison across samples.

[3] = molecular target: T1, human GLP-1 receptor; assay: Assay (I)(a): GLP-1 receptor potency, CRE luciferase reporter gene assay in BHK cells; format: cell-based; conditions: BHK cells expressing human GLP-1 receptor, read-out: EC50 GLP-1R
Experimental: Assay (I): GLP-1 and Glucagon Receptor Potency The purpose of this example was to test the activity or potency, of the GLP-1 derivatives of the invention, in vitro. The in vitro potency is the measure of human GLP-1 receptor (GLP-1R) or glucagon receptor (glucagonR) activation, respectively, in a whole cell assay. In vitro potency was determined by measuring the cellular response of human GLP-1 or glucagon receptor activation, respectively, in a reporter gene assay. The assay was performed in a BHK cell line that stably expresses either the human GLP-1 receptor or the human glucagon receptor and comprises the DNA for the cAMP response element (CRE) coupled to a promoter and the gene for firefly luciferase (CRE luciferase). […] When assay incubation was completed, the luciferase substrate (luciferin) was added and the enzyme converted luciferin to oxyluciferin and produces bioluminescence. The luminescence was measured as the readout for the assay. (a) GLP-1 Receptor Activation The cells used in this assay (clone FCW467-12A/KZ10-1) were BHK cells with BHKTS13 as a parent cell line. The cells were derived from a clone (FCW467-12A) that expresses the human GLP-1 receptor and were established by further transfection with CRE luciferase to obtain the current clone. The cells were cultured at 5% CO2 in DMEM medium with 10% FBS, 1×GlutaMAX, 1 mg/ml G418, 240 nM MTX (methotrexate) and 1% pen/strep (penicillin/streptomycin). They were aliquoted and stored in liquid nitrogen. Before each assay, an aliquot was taken up and washed three times in PBS before being suspended at the desired concentration in assay medium. For 96-well plates the suspension was made to give a final concentration of 5×10EE3 cells/well. The following chemicals were used in the assay: Pluronic F-68 (10%) (Gibco 2404), Ovalbumin (Sigma A5503), DMEM w/o phenol red (Gibco 11880-028), 1 M Hepes (Gibco 15630), Glutamax 100× (Gibco 35050) and steadylite plus (PerkinElmer 6016757). Assay Medium consisted of DMEM w/o phenol red, 10 mM Hepes, 1×GlutaMAX, 2% Ovalbumin and 0.2% Pluronic F-68. Cell stocks were thawed in a 37° C. water bath. Cells were washed three times in PBS. The cells were counted and adjusted to 5×10EE3 cells/50 μl (1×10EE5 cells/ml) in Assay Medium. A 50 μl aliquot of cells was transferred to each well in the assay plate. Stocks of the test compounds and reference compounds were diluted to a concentration of […] in Assay Medium. Compounds were diluted 10-fold to give the following concentrations: 2×10EE-6 M, 2×10EE-7 M, 2×10EE-8 M; 2×10EE-9 M, 2×10EE-10 M, 2×10EE-11 M, 2×10EE-12 M and 2×10EE-13 M. For each compound a blank assay medium control was also included. A 50 μl aliquot of compound or blank was transferred from the dilution plate to the assay plate. Compounds were tested at the following final concentrations: 1×10EE-6 M, 1×10EE-7 M, 1×10EE-8 M; 1×10EE-9 M, 1×10EE-10 M, 1×10EE-11 M and 1×10EE-12 M and 1×10EE-13 M. The assay plate was incubated for 3 h in a 5% CO2 incubator at 37° C. The assay plate was removed from the incubator and allowed to stand at room temperature for 15 min. A 100 μl aliquot of steadylite plus reagent was added to each well of the assay plate (reagent is light sensitive). Each assay plate was covered with aluminum foil to protect it from light and shaken for 30 min at room temperature. Each assay plate was read in a Perkin Elmer TopCount NXT instrument. The data from the TopCount instrument was transferred to GraphPad Prism software. The software performed a non-linear regression (log(agonist) vs response-Variable slope (four parameter)). EC50 values were calculated by the software and reported in pM.

IC50 [1] [nM] | Chemical stability: Chemical degradation over 14 days at 37° C. [2] [%] | EC50 [3] [nM] | SMILES
0.7 | 1.5 |  | CC[C@H](C)[C@H](NC(=O)[C@H](Cc1ccccc1)NC(=O)[C@H](CCC(=O)O)NC(=O)[C@H](CCCNC(=N)N)NC(=O)[C@H](C)NC(=O)[C@H](C)NC(=O)[C@H](CCC(N)=O)NC(=O)[C@H](CCC(=O)O)NC(=O)[C@H](CCC(=O)O)NC(=O)[C@H](CC(C)C)NC(=O)[C@H](Cc1ccc(O)cc1)NC(=O)[C@H](CCCCN)NC(=O)[C@H](CO)NC(=O)[C@H](Cc1ccc(O)cc1)NC(=O)[C@H](CC(=O)O)NC(=O)[C@H](CO)NC(=O)[C@@H](NC(=O)[C@H](Cc1ccccc1)NC(=O)[C@@H](NC(=O)CNC(=O)[C@H](Cc1c[nH]cn1)NC(=O)C1(NC(=O)CCc2c[nH]cn2)CCC1)[C@@H](C)O)[C@@H](C)O)C(=O)N[C@@H](C)C(=O)N[C@@H](Cc1c[nH]c2ccccc12)C(=O)N[C@@H](CC(C)C)C(=O)N[C@@H](CC(C)C)C(=O)N[C@@H](CCCCN)C(=O)N[C@@H](CCCCNC(=O)CNC(=O)[C@H](CO)NC(=O)[C@H](CCC(=O)O)NC(=O)CNC(=O)[C@H](CO)NC(=O)CC[C@H](NC(=O)CC[C@H](NC(=O)CCCCCCCCCCCCCCCCC(=O)O)C(=O)O)C(=O)O)C(N)=O [Example 1, N^ε35-[2-[[(2S)-2-[[(2S)-4-carboxy-2-[[2-[[(2S)-2-[[(4S)-4-carboxy-4-[[(4S)-4-carboxy-4-(17-carboxyheptadecanoylamino)butanoyl]amino]butanoyl]amino]-3-hydroxypropanoyl]amino]acetyl]amino]butanoyl]amino]-3-hydroxypropanoyl]amino]acetyl]-[Imp7,Acb8,His9,Tyr16,Lys18,Glu22,Arg26,Leu33,Lys35]-GLP-1-(7-35)-peptide amide] (I: Desaminohistidyl-[Ac4c]HGTFTSDYSKYLEEQAAREFIAWLLKK-NH2 / II: {C18 diacid-γGlu-γGlu}-SGESG; amide I:28-II:C)
0.4 |  | 0.005 | CC[C@H](C)[C@H](NC(=O)[C@H](Cc1ccccc1)NC(=O)[C@H](CCC(=O)O)NC(=O)[C@H](CCCNC(=N)N)NC(=O)[C@H](C)NC(=O)[C@H](C)NC(=O)[C@H](CCC(N)=O)NC(=O)[C@H](CCC(=O)O)NC(=O)[C@H](CCC(=O)O)NC(=O)[C@H](CC(C)C)NC(=O)[C@H](Cc1ccc(O)cc1)NC(=O)[C@H](CCCCN)NC(=O)[C@H](CO)NC(=O)[C@@H](NC(=O)[C@H](CC(=O)O)NC(=O)[C@H](CO)NC(=O)[C@@H](NC(=O)[C@H](Cc1ccccc1)NC(=O)[C@@H](NC(=O)CNC(=O)[C@H](Cc1c[nH]cn1)NC(=O)C(C)(C)NC(=O)CCc1c[nH]cn1)[C@@H](C)O)[C@@H](C)O)C(C)C)C(=O)N[C@@H](C)C(=O)N[C@@H](Cc1c[nH]c2ccccc12)C(=O)N[C@@H](CC(C)C)C(=O)N[C@@H](CC(C)C)C(=O)N[C@@H](CCCCNC(=O)CNC(=O)[C@H](CO)NC(=O)[C@H](CCC(=O)O)NC(=O)CNC(=O)[C@H](CO)NC(=O)CC[C@H](NC(=O)CC[C@H](NC(=O)CCCCCCCCCCCCCCCCCCC(=O)O)C(=O)O)C(=O)O)C(=O)N[C@H](C(N)=O)[C@@H](C)O [Example 30, N^ε34-[2-[[(2S)-2-[[(2S)-4-carboxy-2-[[2-[[(2S)-2-[[(4S)-4-carboxy-4-[[(4S)-4-carboxy-4-(19-carboxynonadecanoylamino)butanoyl]amino]butanoyl]amino]-3-hydroxypropanoyl]amino]acetyl]amino]butanoyl]amino]-3-hydroxypropanoyl]amino]acetyl]-[Imp7,Aib8,His9,Lys18,Glu22,Arg26,Leu33,Thr35]-GLP-1-(7-35)-peptide amide] (I: Desaminohistidyl-[Aib]HGTFTSDVSKYLEEQAAREFIAWLLKT-NH2 / II: {C20 diacid-γGlu-γGlu}-SGESG; amide I:27-II:C)
3.2 |  | 0.008 | CC[C@H](C)[C@H](NC(=O)[C@H](Cc1ccccc1)NC(=O)[C@H](CCC(=O)O)NC(=O)[C@H](CCCNC(=N)N)NC(=O)[C@H](C)NC(=O)[C@H](C)NC(=O)[C@H](CCC(N)=O)NC(=O)[C@H](CCC(=O)O)NC(=O)[C@H](CCC(=O)O)NC(=O)[C@H](CC(C)C)NC(=O)[C@H](Cc1ccc(O)cc1)NC(=O)[C@H](CCCNC(=N)N)NC(=O)[C@H](CO)NC(=O)[C@@H](NC(=O)[C@H](CC(=O)O)NC(=O)[C@H](CO)NC(=O)[C@@H](NC(=O)[C@H](Cc1ccccc1)NC(=O)[C@@H](NC(=O)CNC(=O)[C@H](Cc1c[nH]cn1)NC(=O)CNC(=O)CCc1c[nH]cn1)[C@@H](C)O)[C@@H](C)O)C(C)C)C(=O)N[C@@H](C)C(=O)N[C@@H](Cc1c[nH]c2ccccc12)C(=O)N[C@@H](CC(C)C)C(=O)N[C@@H](CC(C)C)C(=O)N[C@@H](CCCCNC(=O)CNC(=O)[C@H](CO)NC(=O)[C@H](CCC(=O)O)NC(=O)CNC(=O)[C@H](CO)NC(=O)CC[C@H](NC(=O)CC[C@H](NC(=O)CCCCCCCCCCCCCCCCC(=O)O)C(=O)O)C(=O)O)C(=O)N[C@H](C(N)=O)[C@@H](C)O [Example 37, N^ε34-[2-[[(2S)-2-[[(2S)-4-carboxy-2-[[2-[[(2S)-2-[[(4S)-4-carboxy-4-[[(4S)-4-carboxy-4-(17-carboxyheptadecanoylamino)butanoyl]amino]butanoyl]amino]-3-hydroxypropanoyl]amino]acetyl]amino]butanoyl]amino]-3-hydroxypropanoyl]amino]acetyl]-[Imp7,Gly8,His9,Arg18,Glu22,Arg26,Leu33,Thr35]-GLP-1-(7-35)-peptide amide] (I: Desaminohistidyl-GHGTFTSDVSRYLEEQAAREFIAWLLKT-NH2 / II: {C18 diacid-γGlu-γGlu}-SGESG; amide I:27-II:C)

Source: patent publication US9988430B2, “Stable GLP-1 based GLP-1/glucagon receptor co-agonists” (Novo Nordisk A/S, priority 2014, dated 2018)
